In this test the test system is DU-145. Type of test: cell-based, human.

For the molecule `CC(=O)O[C@H]1C(=O)[C@@]2(C)[C@H]([C@H](OC(=O)c3ccccc3)[C@]3(O)C[C@H](OC(=O)[C@H](O)[C@@H](NC(=O)c4ccccc4)c4ccccc4)C(C)=C1C3(C)C)[C@]1(OC(C)=O)CO[C@@H]1C[C@@H]2O` [Taxol], the Cell survival rate is listed as 63.88%.

Values taken from EP2196204A1 (priority 2007, dated 2009).
